Source: patent US20250388544A1, “HETEROAROMATIC INHIBITORS OF ASTACIN PROTEINASES” (VIVORYON THERAPEUTICS N.V., priority 2019, published 2025)
pIC50, pKi: −log10 of the molar value.

Key:
Assay type in all cases: biochemical
hMMP 9 = target: T1, hMMP 9 (Homo sapiens, UniProt P14780); test: Residual enzyme activity of other metalloproteases; conditions: read-out: Residual enzyme activity MMP9; for remaining activity at 10 µM: 10 μM inhibitor; for remaining activity at 200 µM: 200 μM inhibitor
T1 construct: purchased R&D systems
T1 sequence (P14780 107-707 limits assumed): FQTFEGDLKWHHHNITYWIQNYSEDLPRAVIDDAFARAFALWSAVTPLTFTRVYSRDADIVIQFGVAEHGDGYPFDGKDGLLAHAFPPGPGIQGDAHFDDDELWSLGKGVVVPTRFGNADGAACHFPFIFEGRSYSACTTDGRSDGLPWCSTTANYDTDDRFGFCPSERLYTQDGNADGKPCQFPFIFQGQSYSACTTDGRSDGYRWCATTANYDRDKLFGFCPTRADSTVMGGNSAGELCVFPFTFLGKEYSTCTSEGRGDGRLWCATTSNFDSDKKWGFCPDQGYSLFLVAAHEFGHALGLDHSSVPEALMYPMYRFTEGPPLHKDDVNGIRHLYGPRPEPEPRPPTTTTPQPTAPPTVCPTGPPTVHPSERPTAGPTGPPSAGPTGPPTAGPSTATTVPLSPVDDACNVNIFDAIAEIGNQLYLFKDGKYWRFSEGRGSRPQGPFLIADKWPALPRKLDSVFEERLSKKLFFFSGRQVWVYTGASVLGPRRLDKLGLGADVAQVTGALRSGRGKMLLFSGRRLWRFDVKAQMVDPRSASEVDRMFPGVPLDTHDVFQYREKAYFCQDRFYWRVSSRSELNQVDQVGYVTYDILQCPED
Experimental: (§1) The determination of enzymatic activity was based on the cleavage of internally quenched peptide substrates. A typical assay of 250 μl total volume measured in black 96 well plates consisted of 100 μl buffer, 50 μl enzyme at a final concentration of 5e-8 M to 2e-10 M, 50 μl substrate (0.15 to 80 μM, in buffer, 0.5% DMSO) and 50 μl inhibitor solution (in buffer, 1% DMSO). In case of 125 μl assay volume (black 96 half area well plates) all volumes were cut in half. Enzymatic activity of ADAMs was measured in 384 well plates with 60 μl total assay volume consisting of 20 μl inhibitor, 20 μl buffer, 10 μl enzyme and 10 μl substrate.
(§2) MMPs were activated prior to measurement by APMA (p-aminophenylmercuric acetate) treatment according to manufacturer's instructions (R&D systems).

hMeprin α = target: T2, hMeprin α (Homo sapiens, UniProt Q16819); test: Enzymatic assay, quenched peptide substrate cleavage, method B; conditions: geometric mean (geometric SD factor in parentheses); for pIC50: read-out: Meprin alpha IC50; for pKi: Morrison's equation, read-out: Meprin alpha Ki(app)
T2 sequence (Q16819 66-746): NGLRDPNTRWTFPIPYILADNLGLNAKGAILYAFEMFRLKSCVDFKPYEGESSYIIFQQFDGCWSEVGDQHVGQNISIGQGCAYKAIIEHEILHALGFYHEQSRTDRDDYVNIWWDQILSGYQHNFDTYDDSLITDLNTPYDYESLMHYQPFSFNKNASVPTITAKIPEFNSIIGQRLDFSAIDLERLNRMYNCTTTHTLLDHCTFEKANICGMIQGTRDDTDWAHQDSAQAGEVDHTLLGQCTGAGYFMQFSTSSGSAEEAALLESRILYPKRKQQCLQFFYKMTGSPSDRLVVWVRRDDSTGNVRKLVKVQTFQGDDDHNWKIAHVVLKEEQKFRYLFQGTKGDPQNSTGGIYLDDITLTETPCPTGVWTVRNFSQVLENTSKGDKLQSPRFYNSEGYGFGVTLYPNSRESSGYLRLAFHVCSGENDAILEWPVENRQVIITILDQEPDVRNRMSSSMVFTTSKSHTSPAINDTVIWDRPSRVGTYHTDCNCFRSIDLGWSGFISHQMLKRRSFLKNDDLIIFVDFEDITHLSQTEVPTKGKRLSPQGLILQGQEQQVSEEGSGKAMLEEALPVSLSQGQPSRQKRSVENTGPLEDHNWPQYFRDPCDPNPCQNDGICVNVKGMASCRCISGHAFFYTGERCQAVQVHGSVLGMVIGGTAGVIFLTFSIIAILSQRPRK
How it was run: (§3)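 Cleavage of internally quenched peptides was read at 340/420 nm and 30° C., with enzyme at 5e-8 to 2e-10 M and substrate at 0.15–80 μM. Inhibitor solutions contained 1% DMSO and substrate 0.5% DMSO. Method B gave Ki(app) values via Morrison's equation, with kinetics measured in at least duplicate on separate days.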

hMeprin β = target: T3, hMeprin β (Homo sapiens, UniProt Q16820); test: as above; conditions: geometric mean (geometric SD factor in parentheses); for pIC50: read-out: Meprin beta IC50; for pKi: Morrison's equation, read-out: Meprin beta Ki(app)
T3 sequence (Q16820 62-701): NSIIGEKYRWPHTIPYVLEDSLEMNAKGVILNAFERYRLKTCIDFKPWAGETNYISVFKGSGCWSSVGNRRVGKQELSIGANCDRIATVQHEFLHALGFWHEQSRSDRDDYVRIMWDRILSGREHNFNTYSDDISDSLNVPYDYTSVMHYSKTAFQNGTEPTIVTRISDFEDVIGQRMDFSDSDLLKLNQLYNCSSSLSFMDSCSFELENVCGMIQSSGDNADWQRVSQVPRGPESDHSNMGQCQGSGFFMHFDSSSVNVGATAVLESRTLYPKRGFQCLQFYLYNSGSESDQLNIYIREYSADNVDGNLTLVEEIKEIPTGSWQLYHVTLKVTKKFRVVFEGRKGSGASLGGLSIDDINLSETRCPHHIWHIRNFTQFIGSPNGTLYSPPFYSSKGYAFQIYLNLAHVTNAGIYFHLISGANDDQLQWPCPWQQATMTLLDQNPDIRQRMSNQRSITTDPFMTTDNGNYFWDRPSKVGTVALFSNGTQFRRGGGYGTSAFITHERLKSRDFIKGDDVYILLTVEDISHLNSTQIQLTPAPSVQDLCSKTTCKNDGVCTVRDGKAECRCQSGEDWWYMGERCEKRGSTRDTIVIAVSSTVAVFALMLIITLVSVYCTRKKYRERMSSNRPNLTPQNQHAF
How it was run: as §3

hMMP 2 = target: T4, hMMP 2 (Homo sapiens, UniProt P08253); test: Residual enzyme activity of other metalloproteases; conditions: read-out: Residual enzyme activity MMP2; for remaining activity at 10 µM: 10 μM inhibitor; for remaining activity at 200 µM: 200 μM inhibitor
T4 construct: purchased Abnova
T4 sequence (P08253 110-660): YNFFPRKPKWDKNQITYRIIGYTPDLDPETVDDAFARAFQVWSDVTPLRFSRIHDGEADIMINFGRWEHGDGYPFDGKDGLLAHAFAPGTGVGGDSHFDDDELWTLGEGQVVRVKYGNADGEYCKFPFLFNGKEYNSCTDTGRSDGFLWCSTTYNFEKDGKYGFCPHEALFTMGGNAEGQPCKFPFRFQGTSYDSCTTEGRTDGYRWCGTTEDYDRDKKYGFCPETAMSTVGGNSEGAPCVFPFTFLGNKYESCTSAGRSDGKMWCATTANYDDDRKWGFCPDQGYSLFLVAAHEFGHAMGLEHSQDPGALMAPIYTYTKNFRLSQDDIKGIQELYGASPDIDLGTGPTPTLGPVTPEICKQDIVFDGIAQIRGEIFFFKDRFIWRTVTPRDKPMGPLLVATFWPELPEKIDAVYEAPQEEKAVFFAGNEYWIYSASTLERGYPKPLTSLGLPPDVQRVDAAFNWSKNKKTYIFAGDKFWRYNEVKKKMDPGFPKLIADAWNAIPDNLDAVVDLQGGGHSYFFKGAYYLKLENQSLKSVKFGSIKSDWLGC
Experimental: as §1, with “A” for “The determination of enzymatic activity was based on the cleavage of internally quenched peptide substrates. A”
as §2

hMMP 13 = target: T5, hMMP 13 (Homo sapiens, UniProt P45452); test: Residual enzyme activity of other metalloproteases; conditions: read-out: Residual enzyme activity MMP13; for remaining activity at 10 µM: 10 μM inhibitor; for remaining activity at 200 µM: 200 μM inhibitor
T5 construct: purchased R&D systems
Experimental: as §1, with “A” for “The determination of enzymatic activity was based on the cleavage of internally quenched peptide substrates. A”
as §2

Structure (SMILES) | remaining activity at 10 µM (hMMP 9) [%] | remaining activity at 200 µM (hMMP 9) [%] | pIC50 (hMeprin α) | pIC50 (hMeprin β) | remaining activity at 10 µM (hMMP 2) [%] | remaining activity at 200 µM (hMMP 2) [%] | remaining activity at 10 µM (hMMP 13) [%] | remaining activity at 200 µM (hMMP 13) [%] | pKi (hMeprin α) | pKi (hMeprin β)
O=C(Cc1c(-c2ccccc2)n[nH]c1-c1ccccc1)NO [Example 1, 2-(3,5-Diphenyl-1H-pyrazol-4-yl)ethanehydroxamic acid] | 81 | 27 | 9.00 | 6.92 | 104 | 61 | 75 | 67 |  | 
O=C(Cc1c(-c2ccccc2)noc1-c1ccccc1)NO [Example 2, 2-(3,5-Diphenylisoxazol-4-yl)ethanehydroxamic acid] | 86 | 16 | 8.40 | 6.23 | 87 | 34 | 80 | 31 | 8.40 | 6.23
O=C(CCc1c(-c2ccccc2)n[nH]c1-c1ccccc1)NO [Example 3, 3-(3,5-Diphenyl-1H-pyrazol-4-yl)propanehydroxamic acid] | 93 | 65 | 7.10 | 5.02 | 97 | 77 | 93 | 68 | 7.11 | 5.03
O=C(CCc1c(-c2ccccc2)noc1-c1ccccc1)NO [Example 4, 3-(3,5-Diphenylisoxazol-4-yl)propanehydroxamic acid] | 89 | 39 |  |  | 98 | 74 | 79 | 66 |  | 
O=C(Cn1c(-c2ccccc2)nnc1-c1ccccc1)NO [Example 7, 2-(3,5-Diphenyl-1,2,4-triazol-4-yl)ethanehydroxamic acid] | 99 | 54 |  |  | 95 | 70 | 93 | 76 |  | 
O=C(Cn1c(-c2ccccc2)ccc1-c1ccccc1)NO [Example 9, 2-(2,5-Diphenylpyrrol-1-yl)ethanehydroxamic acid] | 92 | 1 |  |  | 83 | 1 | 79 | 5 |  | 
O=C(Cn1c(-c2ccccc2)nc2ccccc21)NO [Example 13, 2-(2-Phenylbenzimidazol-1-yl)ethanehydroxamic acid] | 96 | 68 | 6.85 | 5.94 | 89 | 46 | 102 | 72 | 6.89 | 5.95
O=C(Cn1c(-c2ccccc2)cc2ccccc21)NO [Example 25, 2-(2-Phenylindol-1-yl)ethanehydroxamic acid] | 90 | 53 |  |  | 85 | 41 | 77 | 54 |  | 
O=C(Cc1c(-c2ccccc2)nn(Cc2ccc(C(=O)O)cc2)c1-c1ccccc1)NO [Example 40, 4-[[4-(2-(Hydroxyamino)-2-oxo-ethyl]-3,5-diphenyl-1H-pyrazol-1-yl]methyl]benzoic acid] | 80 | 30 | 9.35 | 8.05 | 85 | 24 | 86 | 22 | 9.42 | 8.05
O=C(Cc1c(-c2ccccc2)nn(Cc2cccc(C(=O)O)c2)c1-c1ccccc1)NO [Example 41, 3-[[4-[2-(Hydroxyamino)-2-oxo-ethyl]-3,5-diphenyl-1H-pyrazol-1-yl]methyl]benzoic acid] | 83 | 36 | 9.41 | 8.00 | 89 | 34 | 83 | 34 | 9.48 | 7.96
O=C(Cc1c(-c2ccccc2)nn(Cc2ccc(Cl)c(O)c2F)c1-c1ccccc1)NO [Example 42, 2-[1-(4-Chloro-2-fluoro-3-hydroxybenzyl)-3,5-diphenyl-1H-pyrazol-4-yl]ethanehydroxamic acid] | 70 | 14 | 9.80 | 8.00 | 69 | 18 | 84 | 9 | 10.10 | 8.05
O=C(Cc1c(-c2ccccc2)nn(Cc2ccc3c(c2)OCO3)c1-c1ccccc1)NO [Example 43, 2-[1-(1,3-Benzodioxol-5-ylmethyl)-3,5-diphenyl-1H-pyrazol-4-yl]ethanehydroxamic acid] | 74 | 60 | 9.12 | 6.51 | 77 | 60 | 78 | 51 | 9.23 | 6.52
